Measured values as given in ChEMBL document CHEMBL5038653, “A Brain-Penetrant and Bioavailable Pyrazolopiperazine BACE1 Inhibitor Elicits Sustained Reduction of Amyloid β In Vivo” (ACS Med Chem Lett, 2022).

Tests used:
[1] = In vivo inhibition of BACE1 in Beagle dog assessed as reduction of amyloid beta (1 to 42 residues) levels in CSF at 5 mg/kg, po measured at 8 to 24 hrs; assay type: functional, Canis lupus familiaris; set-up: scale not given: the % may be the effect or the level left; settings: time 8-24 hrs
hERG (KCNH2) = hERG (KCNH2) (Homo sapiens, UniProt Q12809); assay: Inhibition of hERG expressed in HEK293 cells at 3 uM at -80 mV holding potential by automated patch-clamp method; assay type: toxicity, cell-based; settings: HEK293 cells expressing hERG
Cytochrome P450 2D6 = Cytochrome P450 2D6 (Homo sapiens, UniProt P10635); assay: Inhibition of human CYP2D6 by fluorescence plate reader analysis; assay type: ADME
Beta-secretase 1 = Beta-secretase 1 (Homo sapiens, UniProt P56817); assay: Inhibition of BACE1 (1 to 454 residues) (unknown origin) using APP harboring Swedish Lys/Met mutant-derived peptide as substrate by FRET assay
[2] = Metabolic stability in human liver microsomes assessed as metabolite formation after 15 mins in presence of NADPH by LC-MS analysis; assay type: ADME, Microsome; settings: 0.25 h
[3] = Metabolic stability in mouse liver microsomes assessed as metabolite formation after 15 mins in presence of NADPH by LC-MS analysis; assay type: ADME, Microsome; settings: 0.25 h
[4] = Free drug concentration in human plasma measured after 4.5 hrs by HPLC-MS/MS method; assay type: ADME, cell-free
[5] = Free drug concentration in mouse plasma measured after 4.5 hrs by HPLC-MS/MS method; assay type: ADME, cell-free
[6] = Free drug concentration in dog plasma measured after 4.5 hrs by HPLC-MS/MS method; assay type: ADME, cell-free, Canis lupus familiaris
[7] = In vivo inhibition of BACE1 in Beagle dog assessed as reduction of amyloid beta (1 to 42 residues) levels in CSF at 2.5 mg/kg, po measured after 8 hrs by electrochemiluminescence assay; assay type: functional, Canis lupus familiaris; set-up: scale not given: the % may be the effect or the level left
[8] = Drug level in CD-1 mouse plasma at 10 mg/kg, po measured at 1 hr post dose; assay type: ADME, organism-based
[9] = Drug level in CD-1 mouse brain at 10 mg/kg, po measured at 1 hr post dose; assay type: ADME, organism-based; settings: read-out: Ct
[10] = Ratio of unbound drug concentration in brain to blood in CD-1 mouse at 10 mg/kg, po measured at 1 hr post dose; assay type: ADME, organism-based
[11] = AUC (0 to infinity) in dog at 0.25 mg/kg, iv; assay type: ADME, organism-based, Canis lupus familiaris; set-up: route intravenous, time infinity, dose 0.25 mg/kg; settings: in vivo
[12] = Clearance in mouse plasma at 0.28 mg/kg, iv; assay type: ADME, organism-based
[13] = Clearance in rat plasma at 0.25 mg/kg, iv; assay type: ADME, organism-based
[14] = Volume of distribution at steady state in mouse at 0.28 mg/kg, iv; assay type: ADME, organism-based; settings: in vivo, read-out: Vdss
[15] = Volume of distribution at steady state in rat at 0.25 mg/kg, iv; assay type: ADME, organism-based; settings: in vivo, read-out: Vdss
[16] = Half life in mouse at 0.28 mg/kg, iv; assay type: ADME, organism-based; settings: in vivo
[17] = Half life in dog at 0.25 mg/kg, iv; assay type: ADME, organism-based, Canis lupus familiaris; settings: in vivo
[18] = Cmax in mouse at 2.1 mg/kg, po; assay type: ADME, organism-based; set-up: route oral, dose 2.1 mg/kg; settings: in vivo
[19] = Cmax in dog at 2.5 mg/kg, po; assay type: ADME, organism-based, Canis lupus familiaris; set-up: route oral, dose 2.5 mg/kg; settings: in vivo
[20] = Tmax in mouse at 2.1 mg/kg, po; assay type: ADME, organism-based; settings: in vivo
[21] = Tmax in rat at 2.3 mg/kg, po; assay type: ADME, organism-based; settings: in vivo
[22] = Tmax in dog at 2.5 mg/kg, po; assay type: ADME, organism-based, Canis lupus familiaris; settings: in vivo
[23] = AUC (0 to last) in mouse at 2.1 mg/kg, po; assay type: ADME, organism-based; set-up: route oral, time 0 - last, dose 2.1 mg/kg; settings: in vivo
[24] = AUC (0 to last) in rat at 2.3 mg/kg, po; assay type: ADME, organism-based; set-up: time 0 - last, route oral, dose 2.3 mg/kg; settings: in vivo
[25] = Oral bioavailability in mouse at 2.1 mg/kg; assay type: ADME, organism-based; settings: in vivo
[26] = Oral bioavailability in rat at 2.3 mg/kg; assay type: ADME, organism-based; settings: in vivo
[27] = Cardiotoxicity in guinea pig assessed as effect on heart rate upto 5 mg/kg, iv administered over 10 mins at 30 mins interval by ECG analysis; assay type: toxicity, organism-based, Cavia porcellus; settings: in vivo
[28] = Drug level in CD-1 mouse plasma at 10 mg/kg, po measured at 2 hr post dose; assay type: ADME, organism-based
[29] = Drug level in CD-1 mouse plasma at 10 mg/kg, po measured at 4 hr post dose; assay type: ADME, organism-based
[30] = Drug level in CD-1 mouse brain at 10 mg/kg, po measured at 4 hr post dose; assay type: ADME, organism-based; settings: read-out: Ct
[31] = Ratio of unbound drug concentration in brain to blood in CD-1 mouse at 10 mg/kg, po measured at 2 hr post dose; assay type: ADME, organism-based
Cytochrome P450 3A4 = Cytochrome P450 3A4 (Homo sapiens, UniProt P08684); assay: Inhibition of human CYP3A4 using midazolam as substrate by fluorescence plate reader analysis; assay type: ADME
[32] = Apparent permeability across apical to basolateral side in dog MDCK-MDR1 cells at 5 uM incubated for 120 mins; assay type: ADME, cell-based, Canis lupus familiaris
Cytochrome P450 2C8 = target: T1, Cytochrome P450 2C8 (Homo sapiens, UniProt P10632); assay: Inhibition of human CYP2C8 by fluorescence plate reader analysis; assay type: ADME
T1 sequence (P10632 whole entry): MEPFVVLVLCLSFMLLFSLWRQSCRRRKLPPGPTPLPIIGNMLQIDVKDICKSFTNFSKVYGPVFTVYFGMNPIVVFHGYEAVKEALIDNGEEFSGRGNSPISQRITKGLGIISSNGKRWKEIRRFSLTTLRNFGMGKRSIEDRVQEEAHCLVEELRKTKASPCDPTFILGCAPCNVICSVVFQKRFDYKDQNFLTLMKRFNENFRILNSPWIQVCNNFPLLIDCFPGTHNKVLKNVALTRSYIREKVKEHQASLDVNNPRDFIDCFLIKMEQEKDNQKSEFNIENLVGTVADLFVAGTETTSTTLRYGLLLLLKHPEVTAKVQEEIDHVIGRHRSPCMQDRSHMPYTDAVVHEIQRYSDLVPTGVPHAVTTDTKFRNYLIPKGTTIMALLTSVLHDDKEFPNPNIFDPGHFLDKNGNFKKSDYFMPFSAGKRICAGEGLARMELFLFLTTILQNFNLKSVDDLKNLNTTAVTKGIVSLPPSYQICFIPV

Cytochrome P450 2C9 = Cytochrome P450 2C9 (Homo sapiens, UniProt P11712); assay: Inhibition of human CYP2C9 by fluorescence plate reader analysis; assay type: ADME
Cytochrome P450 2C19 = Cytochrome P450 2C19 (Homo sapiens, UniProt P33261); assay: Inhibition of human CYP2C19 by fluorescence plate reader analysis; assay type: ADME
[33] = Cardiotoxicity in guinea pig assessed as effect on blood pressure upto 5 mg/kg, iv administered over 10 mins at 30 mins interval; assay type: toxicity, organism-based, Cavia porcellus; settings: in vivo
[34] = Cardiotoxicity in guinea pig assessed as effect on PQ interval upto 5 mg/kg, iv administered over 10 mins at 30 mins interval by ECG analysis; assay type: toxicity, organism-based, Cavia porcellus; settings: in vivo
[35] = Cardiotoxicity in guinea pig assessed as effect on QT cB interval upto 5 mg/kg, iv administered over 10 mins at 30 mins interval by ECG analysis; assay type: toxicity, organism-based, Cavia porcellus; settings: in vivo
[36] = Toxicity in Beagle dog assessed as behavioral changes at 0.31 to 5 mg/kg, po; assay type: organism-based, Canis lupus familiaris; settings: in vivo, dose 0.31-5 mg/kg
[37] = In vivo inhibition of CD-1 mouse assessed as remaining amyloid beta (1 to 42 residues) levels in CSF at 10 mg/kg, po measured at 1 hr; assay type: functional

Chain of Beta-secretase 1 (P56817 whole entry, the tested form may be a part): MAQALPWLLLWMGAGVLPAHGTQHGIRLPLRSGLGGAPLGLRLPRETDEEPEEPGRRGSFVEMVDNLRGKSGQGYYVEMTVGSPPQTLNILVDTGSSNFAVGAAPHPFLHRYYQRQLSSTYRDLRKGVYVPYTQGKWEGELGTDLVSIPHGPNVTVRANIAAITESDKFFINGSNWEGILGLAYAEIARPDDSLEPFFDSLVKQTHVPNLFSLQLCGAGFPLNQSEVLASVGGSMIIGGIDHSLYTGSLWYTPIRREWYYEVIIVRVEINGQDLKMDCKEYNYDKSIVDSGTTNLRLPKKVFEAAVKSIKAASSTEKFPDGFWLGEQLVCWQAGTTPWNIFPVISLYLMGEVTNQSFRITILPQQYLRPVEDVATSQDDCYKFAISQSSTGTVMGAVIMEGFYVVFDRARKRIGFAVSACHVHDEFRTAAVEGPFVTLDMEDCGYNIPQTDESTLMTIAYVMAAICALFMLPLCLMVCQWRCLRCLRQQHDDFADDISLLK
Chain of Cytochrome P450 2D6 (P10635 whole entry, the tested form may be a part): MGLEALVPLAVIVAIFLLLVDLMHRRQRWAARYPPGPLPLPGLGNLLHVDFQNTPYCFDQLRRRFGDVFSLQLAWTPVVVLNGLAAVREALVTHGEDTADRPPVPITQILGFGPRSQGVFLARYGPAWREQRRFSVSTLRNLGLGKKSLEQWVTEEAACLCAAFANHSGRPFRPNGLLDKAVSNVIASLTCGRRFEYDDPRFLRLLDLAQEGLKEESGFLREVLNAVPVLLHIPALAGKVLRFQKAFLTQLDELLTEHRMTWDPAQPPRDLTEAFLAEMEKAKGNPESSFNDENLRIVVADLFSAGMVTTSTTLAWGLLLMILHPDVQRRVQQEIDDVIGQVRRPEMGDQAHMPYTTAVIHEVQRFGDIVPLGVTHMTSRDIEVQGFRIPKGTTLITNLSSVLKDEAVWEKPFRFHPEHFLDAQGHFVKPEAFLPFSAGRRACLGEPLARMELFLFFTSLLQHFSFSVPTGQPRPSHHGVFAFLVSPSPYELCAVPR
Chain of hERG (KCNH2) (Q12809 whole entry): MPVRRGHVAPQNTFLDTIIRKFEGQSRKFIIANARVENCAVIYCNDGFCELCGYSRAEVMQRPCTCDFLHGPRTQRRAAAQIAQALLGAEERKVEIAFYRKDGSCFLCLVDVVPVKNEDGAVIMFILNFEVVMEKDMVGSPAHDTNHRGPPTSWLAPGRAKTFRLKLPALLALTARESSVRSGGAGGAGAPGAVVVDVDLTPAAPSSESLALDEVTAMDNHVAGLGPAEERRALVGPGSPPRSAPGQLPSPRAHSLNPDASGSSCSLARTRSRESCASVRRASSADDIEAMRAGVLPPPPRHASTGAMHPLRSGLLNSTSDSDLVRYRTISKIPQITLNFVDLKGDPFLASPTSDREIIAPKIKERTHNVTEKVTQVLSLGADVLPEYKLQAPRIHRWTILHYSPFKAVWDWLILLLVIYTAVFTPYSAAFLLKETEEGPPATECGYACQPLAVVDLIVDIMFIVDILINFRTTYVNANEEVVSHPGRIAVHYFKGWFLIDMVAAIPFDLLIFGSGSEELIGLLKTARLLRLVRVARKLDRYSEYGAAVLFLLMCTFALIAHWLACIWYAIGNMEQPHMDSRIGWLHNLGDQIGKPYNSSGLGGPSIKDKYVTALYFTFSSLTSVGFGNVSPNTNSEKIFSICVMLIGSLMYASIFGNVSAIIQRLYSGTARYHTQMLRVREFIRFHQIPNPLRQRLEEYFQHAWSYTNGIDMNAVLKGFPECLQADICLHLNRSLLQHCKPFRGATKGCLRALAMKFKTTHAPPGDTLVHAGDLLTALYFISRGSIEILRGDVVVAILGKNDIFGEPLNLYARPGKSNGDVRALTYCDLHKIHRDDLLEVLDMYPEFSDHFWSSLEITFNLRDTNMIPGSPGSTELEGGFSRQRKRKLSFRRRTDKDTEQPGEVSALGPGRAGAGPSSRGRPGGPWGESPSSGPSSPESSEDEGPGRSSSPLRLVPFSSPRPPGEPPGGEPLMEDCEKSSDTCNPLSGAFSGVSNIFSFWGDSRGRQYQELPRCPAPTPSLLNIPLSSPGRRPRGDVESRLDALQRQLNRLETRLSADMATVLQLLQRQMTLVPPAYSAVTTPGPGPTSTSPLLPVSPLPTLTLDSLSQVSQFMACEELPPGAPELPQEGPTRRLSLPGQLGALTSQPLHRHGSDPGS
Chain of Cytochrome P450 2C19 (P33261 whole entry): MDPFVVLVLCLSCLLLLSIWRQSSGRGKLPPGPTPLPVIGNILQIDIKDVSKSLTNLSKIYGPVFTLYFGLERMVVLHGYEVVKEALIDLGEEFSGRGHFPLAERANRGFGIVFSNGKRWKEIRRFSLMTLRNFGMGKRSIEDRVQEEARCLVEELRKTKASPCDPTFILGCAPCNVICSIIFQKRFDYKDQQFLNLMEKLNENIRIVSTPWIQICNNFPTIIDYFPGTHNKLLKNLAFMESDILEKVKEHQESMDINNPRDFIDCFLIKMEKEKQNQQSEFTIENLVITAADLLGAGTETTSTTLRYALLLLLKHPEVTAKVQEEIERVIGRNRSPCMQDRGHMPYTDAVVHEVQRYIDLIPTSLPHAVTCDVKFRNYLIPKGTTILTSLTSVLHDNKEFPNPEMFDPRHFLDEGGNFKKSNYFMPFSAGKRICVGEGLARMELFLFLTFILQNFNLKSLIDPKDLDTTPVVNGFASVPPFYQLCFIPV
Chain of Cytochrome P450 2C9 (P11712 whole entry): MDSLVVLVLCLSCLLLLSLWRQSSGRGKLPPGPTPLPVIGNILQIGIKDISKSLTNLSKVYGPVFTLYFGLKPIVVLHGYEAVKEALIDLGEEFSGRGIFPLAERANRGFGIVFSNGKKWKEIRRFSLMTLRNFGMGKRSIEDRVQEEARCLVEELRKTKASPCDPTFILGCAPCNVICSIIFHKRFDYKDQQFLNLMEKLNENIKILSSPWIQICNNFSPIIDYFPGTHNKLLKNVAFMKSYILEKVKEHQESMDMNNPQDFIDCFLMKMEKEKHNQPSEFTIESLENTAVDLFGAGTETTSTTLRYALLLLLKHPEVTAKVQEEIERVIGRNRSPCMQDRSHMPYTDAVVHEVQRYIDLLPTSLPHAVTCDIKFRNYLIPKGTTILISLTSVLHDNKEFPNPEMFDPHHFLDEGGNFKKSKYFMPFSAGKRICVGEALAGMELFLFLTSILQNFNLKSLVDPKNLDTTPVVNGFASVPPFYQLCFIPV
Chain of Cytochrome P450 3A4 (P08684 whole entry): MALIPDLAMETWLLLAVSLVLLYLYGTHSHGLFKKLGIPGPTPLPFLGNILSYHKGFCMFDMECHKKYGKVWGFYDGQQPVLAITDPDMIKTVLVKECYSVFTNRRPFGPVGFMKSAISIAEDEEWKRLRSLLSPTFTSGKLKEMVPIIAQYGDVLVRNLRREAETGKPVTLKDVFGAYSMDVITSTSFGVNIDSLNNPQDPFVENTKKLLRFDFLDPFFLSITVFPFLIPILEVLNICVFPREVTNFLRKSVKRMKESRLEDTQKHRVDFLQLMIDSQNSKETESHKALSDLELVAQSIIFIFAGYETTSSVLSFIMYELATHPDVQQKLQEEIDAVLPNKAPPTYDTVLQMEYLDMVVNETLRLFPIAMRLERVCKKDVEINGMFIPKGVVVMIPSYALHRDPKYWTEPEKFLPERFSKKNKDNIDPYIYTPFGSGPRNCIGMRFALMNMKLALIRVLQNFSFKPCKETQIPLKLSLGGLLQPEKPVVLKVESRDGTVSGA

SMILES: COc1cnc(C(=O)Nc2ccc(F)c([C@]3(C)Cn4nc(C#N)cc4C(N)=N3)c2)cn1
- Activity [1]: 80%
- inhibition at 3 µM (hERG (KCNH2)): 48%
- IC50 (Cytochrome P450 2D6): > 30 µM
- IC50 (Beta-secretase 1): 0.0029 µM
- Drug metabolism [2]: 8%
- Drug metabolism [3]: 23%
- fraction unbound at 4.5 h [4]: 0.28
- fraction unbound at 4.5 h [5]: 0.05
- fraction unbound at 4.5 h [6]: 0.24
- Activity [7]: 85%
- concentration at 1 h [8]: 591 ng/mL
- concentration at 1 h [9]: 621 ng/g
- Kp uu at 1 h [10]: 0.3
- AUC [11]: 654 ng·h/mL
- clearance [12]: 23 mL/min/kg
- clearance [13]: 19 mL/min/kg
- Vd [14]: 5.3 L/kg
- Vd [15]: 5.3 L/kg
- half-life [16]: 2.8 h
- half-life [17]: 7.7 h
- Cmax [18]: 160 ng/mL
- Cmax [19]: 352 ng/mL
- Tmax [20]: 2.3 h
- Tmax [21]: 5 h
- Tmax [22]: 2.3 h
- AUClast [23]: 1910 ng·h/mL
- AUClast [24]: 1170 ng·h/mL
- bioavailability [25]: > 100%
- bioavailability [26]: 59%
- Activity [27]: Non-Toxic
- concentration at 2 h [28]: 866 ng/mL
- concentration at 4 h [29]: 530 ng/mL
- concentration at 4 h [30]: 402 ng/g
- Kp uu at 2 h [31]: 0.29
- IC50 (Cytochrome P450 3A4): > 30 µM
- Papp A→B at 2 h, 5 µM [32]: 13.1 ×10⁻⁶ cm/s
- IC50 (Cytochrome P450 2C8): > 30 µM
- IC50 (Cytochrome P450 2C9): > 30 µM
- IC50 (Cytochrome P450 2C19): > 30 µM
- Activity [33]: Non-Toxic
- Activity [34]: Non-Toxic
- Activity [35]: Non-Toxic
- Activity [36]: Non-Toxic
- Activity [37]: 74%
